The values that follow come from PubChem BioAssay (NCI).

Molecules are shown by their SMILES.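 Method: 48-hour compound exposure of cells in 96-well plates, five concentrations, linear interpolation of endpoints. At the GI50, growth is halved. At the TGI there is no net growth.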

Some test systems named below: U251 CNS; HCT-15 colon; A549 NSCLC; OVCAR-4 ovarian; 786-0 renal; HOP-62 NSCLC; HOP-92 NSCLC; NCI-H23 lung; MCF7 breast; HS 578T breast.
Holding throughout (assay): inhibition of tumour cell growth, NCI panel, 48 h

With `C[N+](C)(C)CC(CC(=O)[O-])C1CC1` (stereo unspecified), the TGI in the assay on U251 CNS, in the assay with HCT-15 colon, with A549 NSCLC, with OVCAR-4 ovarian, in the assay on 786-0 renal and in the assay on HOP-62 NSCLC was > 100 µM in each case. In addition, the TGI in the assay on HOP-92 NSCLC and in the assay on NCI-H23 lung was > 100 µM throughout.
For `Cc1ccc(/C=C/C(=O)c2ccc([N+](=O)[O-])cc2)cc1`, the TGI in the assay on U251 CNS, in the assay with HCT-15 colon, with A549 NSCLC, in the assay on OVCAR-4 ovarian, with 786-0 renal and in the assay with HOP-62 NSCLC was > 100 µM throughout. Also, the TGI with NCI-H23 lung was 99.8 µM.
For `CCCC(C)c1c(Cl)nc(Cl)nc1Cl` (stereo unspecified), the TGI is 26.3 µM with MCF7 breast; 21.2 µM in the assay on U251 CNS; 64.4 µM in the assay on HCT-15 colon; 29.4 µM in the assay with A549 NSCLC; > 100 µM in the assay on HS 578T breast; 44.7 µM in the assay with OVCAR-4 ovarian. Moreover, the values for the TGI in the assay on 786-0 renal, in the assay on HOP-62 NSCLC and in the assay with NCI-H23 lung were 12.7 µM, 20.6 µM and 18 µM, respectively.
Turning to `CN(C(=O)C12C3C4C1C1C2C3C41C(O)C(C)(C)C)C(C)(C)C` (stereo unspecified), the TGI in the assay with U251 CNS, with A549 NSCLC, in the assay on OVCAR-4 ovarian, with 786-0 renal, in the assay with HOP-62 NSCLC and in the assay with NCI-H23 lung was > 100 µM in each case.
In the case of `C=C1CCC2C(C)(CO)C(O)CCC2(C)C1C/C=C1/CCOC1=O` (stereo unspecified), the TGI in the assay on U251 CNS, in the assay on HCT-15 colon, in the assay with A549 NSCLC, with OVCAR-4 ovarian, with 786-0 renal and in the assay on HOP-62 NSCLC was > 100 µM in each case. Also, the TGI with HOP-92 NSCLC and with NCI-H23 lung was > 100 µM each time.
With `CCOC(=O)C(=O)Nc1ccccc1OCC`, the TGI in the assay with U251 CNS, with A549 NSCLC, in the assay on OVCAR-4 ovarian, in the assay on 786-0 renal, with HOP-62 NSCLC and in the assay with HOP-92 NSCLC was > 100 µM throughout. In addition, the TGI with NCI-H23 lung is > 100 µM.
As to `ClC1c2ccccc2C2(c3ccccc3)OOC1(c1ccccc1)O2` (stereo unspecified), the TGI with U251 CNS was found to be 3.59 µM; in the assay with HCT-15 colon it was 3.24 µM; in the assay on A549 NSCLC, 3.64 µM; in the assay with OVCAR-4 ovarian, 3.08 µM; with 786-0 renal, 2.98 µM; in the assay with HOP-62 NSCLC, 22.9 µM. For the same compound, the TGI was 0.987 µM in the assay with HOP-92 NSCLC and 3.57 µM in the assay on NCI-H23 lung.
With `CCOc1ccc(NCC2CC/C(=C\c3ccc(Cl)cc3)C2=O)cc1` (stereo unspecified), the TGI in the assay with U251 CNS was > 57.3 µM; in the assay with HCT-15 colon it was 23.7 µM; in the assay on A549 NSCLC it was > 100 µM; with OVCAR-4 ovarian, > 75.3 µM; in the assay on 786-0 renal, 25.8 µM; in the assay with HOP-62 NSCLC, > 100 µM. Also, the results for the TGI in the assay with HOP-92 NSCLC and in the assay with NCI-H23 lung were 41.6 µM and > 73.4 µM, respectively.
On to `COc1cc(C(O)C(=O)c2cnc3cc([N+](=O)[O-])ccc3n2)ccc1O` (stereo unspecified), for which the TGI with U251 CNS, with HCT-15 colon, in the assay with A549 NSCLC, in the assay with OVCAR-4 ovarian, in the assay with 786-0 renal and in the assay with HOP-62 NSCLC was > 100 µM in each case.
As for `CC(O)C(NC(=O)c1ccccc1)C(=O)N(Cc1ccccc1)Cc1ccccc1` (stereo unspecified), the TGI with U251 CNS, in the assay on HCT-15 colon, in the assay on A549 NSCLC, in the assay on OVCAR-4 ovarian, with 786-0 renal and with HOP-62 NSCLC was > 100 µM in each case. For the same compound, the TGI with HOP-92 NSCLC and in the assay with NCI-H23 lung was > 100 µM each time.
As for `Oc1ccc2ccccc2c1N=Nc1ccc(Cl)cc1`, the TGI with U251 CNS, with HCT-15 colon, with A549 NSCLC, in the assay with HS 578T breast, with OVCAR-4 ovarian and in the assay with 786-0 renal was > 100 µM each time. Besides, the TGI in the assay with HOP-62 NSCLC, in the assay on HOP-92 NSCLC and in the assay with NCI-H23 lung was > 100 µM in each case.
Take `CNc1ccc([N+](=O)[O-])c2c(NCCCN(C)C)ccnc12`: the TGI in the assay on U251 CNS, with HCT-15 colon, in the assay on A549 NSCLC, in the assay on OVCAR-4 ovarian, with 786-0 renal and in the assay with HOP-62 NSCLC was > 100 µM in each case. The TGI in the assay with NCI-H23 lung was > 100 µM.
As for `N#Cc1cc([N+](=O)[O-])ccc1NC(=O)C(=O)C(C(=O)c1ccc2ccccc2c1)C1OCc2ccccc21` (stereo unspecified), the TGI with U251 CNS was 16.8 µM; with HCT-15 colon it was 37.7 µM; in the assay on A549 NSCLC, > 89 µM; in the assay on OVCAR-4 ovarian, > 55.2 µM; in the assay with 786-0 renal, 14.7 µM; in the assay on HOP-62 NSCLC it was 15.6 µM. In addition, the TGI in the assay on HOP-92 NSCLC is 21.6 µM; with NCI-H23 lung, 14.9 µM.
In the case of `COc1ccc(-c2nnc(SCC(=O)Nc3ccc(C(=O)/C=C/c4cc(OC)c(OC)c(OC)c4)cc3)n2-c2ccccc2)cc1OC`, the GI50 in the assay on MCF7 breast was 0.382 µM; in the assay with U251 CNS it was 5.39 µM; in the assay with HCT-15 colon, 2.01 µM; in the assay with A549 NSCLC it was 4.33 µM; with OVCAR-4 ovarian it was > 10 µM; in the assay with 786-0 renal, 3.53 µM. The GI50 is 8.52 µM in the assay on HOP-62 NSCLC and 8.27 µM in the assay on NCI-H23 lung. In addition, the TGI in the assay on MCF7 breast, in the assay on U251 CNS, in the assay on HCT-15 colon, with A549 NSCLC, in the assay on OVCAR-4 ovarian and in the assay on 786-0 renal was > 10 µM throughout. Also, the TGI with HOP-62 NSCLC and with NCI-H23 lung was > 10 µM each time.
Regarding `NC(CCc1ncc(-c2ccccc2)s1)C(=O)O` (stereo unspecified), the TGI in the assay on U251 CNS, with HCT-15 colon, in the assay on A549 NSCLC, with 786-0 renal, in the assay on HOP-92 NSCLC and in the assay on NCI-H23 lung was > 100 µM each time.
In the case of `CC(=O)OCCOCNC(=S)N/N=C(\C)c1cccs1`, the TGI with U251 CNS, in the assay on HCT-15 colon, in the assay on A549 NSCLC, in the assay with OVCAR-4 ovarian, in the assay with 786-0 renal and in the assay with HOP-62 NSCLC was > 100 µM each time. In addition, in the assay with NCI-H23 lung, the TGI is > 100 µM.
As for `CCCC(=O)c1ccc(=O)n(C)c1`, the TGI with U251 CNS, in the assay on HCT-15 colon, in the assay with A549 NSCLC, with OVCAR-4 ovarian, in the assay with 786-0 renal and in the assay with HOP-62 NSCLC was > 100 µM throughout. Moreover, the TGI with HOP-92 NSCLC and with NCI-H23 lung was > 100 µM throughout.
